Laboratory results published in PubChem BioAssay (NCI).
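Interpolation was linear, between the two tested concentrations surrounding the appropriate level; five concentrations were tested over 48 hours in 96-well plates. At the GI50, growth is halved. At the TGI there is no net growth.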

How the values were obtained:
Experiment in all cases: inhibition of tumour cell growth, NCI panel, 48 h
OVCAR-4 ovarian = system: OVCAR-4 ovarian
OVCAR-3 ovarian = system: OVCAR-3 ovarian
SNB-75 CNS = system: SNB-75 CNS
HCT-15 colon = system: HCT-15 colon
HL-60(TB) leukemia = system: HL-60(TB) leukemia
CCRF-CEM leukemia = system: CCRF-CEM leukemia
CAKI-1 renal = system: CAKI-1 renal
UACC-257 melanoma = system: UACC-257 melanoma
SR leukemia = system: SR leukemia
K-562 leukemia = system: K-562 leukemia
ACHN renal = system: ACHN renal
NCI/ADR-RES ovarian = system: NCI/ADR-RES ovarian
SK-MEL-28 melanoma = system: SK-MEL-28 melanoma
NCI-H226 lung = system: NCI-H226 lung
786-0 renal = system: 786-0 renal
HOP-62 NSCLC = system: HOP-62 NSCLC
SK-MEL-2 melanoma = system: SK-MEL-2 melanoma
NCI-H522 lung = system: NCI-H522 lung
SF-295 CNS = system: SF-295 CNS
NCI-H460 lung = system: NCI-H460 lung
MDA-MB-435 = system: MDA-MB-435
SK-MEL-5 melanoma = system: SK-MEL-5 melanoma
NCI-H23 lung = system: NCI-H23 lung
U251 CNS = system: U251 CNS
IGROV1 ovarian = system: IGROV1 ovarian
T-47D breast = system: T-47D breast
COLO 205 colon = system: COLO 205 colon
SNB-19 CNS = system: SNB-19 CNS
SN12C renal = system: SN12C renal
OVCAR-8 ovarian = system: OVCAR-8 ovarian
M14 melanoma = system: M14 melanoma
MCF7 breast = system: MCF7 breast
LOX IMVI melanoma = system: LOX IMVI melanoma
HCT-116 colon = system: HCT-116 colon
MOLT-4 leukemia = system: MOLT-4 leukemia
HT29 colon = system: HT29 colon
OVCAR-5 ovarian = system: OVCAR-5 ovarian
SF-539 CNS = system: SF-539 CNS
RPMI-8226 leukemia = system: RPMI-8226 leukemia
SF-268 CNS = system: SF-268 CNS
HS 578T breast = system: HS 578T breast
KM12 colon = system: KM12 colon
MDA-MB-231 breast = system: MDA-MB-231 breast
PC-3 prostate = system: PC-3 prostate
A549 NSCLC = system: A549 NSCLC
DU-145 prostate = system: DU-145 prostate
BT-549 breast = system: BT-549 breast
A498 renal = system: A498 renal
UO-31 renal = system: UO-31 renal
SW-620 colon = system: SW-620 colon
SK-OV-3 ovarian = system: SK-OV-3 ovarian
RXF 393 renal = system: RXF 393 renal
EKVX NSCLC = system: EKVX NSCLC
UACC-62 melanoma = system: UACC-62 melanoma
HOP-92 NSCLC = system: HOP-92 NSCLC

## Oc1ccc(Br)cc1Sc1cc(Br)ccc1O
OVCAR-4 ovarian
  GI50: 4.72 µM
  TGI: 18.1 µM
OVCAR-3 ovarian
  GI50: 4.98 µM
  TGI: 18 µM
SNB-75 CNS
  GI50: 4.29 µM
  TGI: 19.7 µM
HCT-15 colon
  GI50: 5.93 µM
  TGI: 22 µM
HL-60(TB) leukemia
  GI50: 4.98 µM
  TGI: 25 µM
CCRF-CEM leukemia
  GI50: 5.25 µM
  TGI: 24.8 µM
CAKI-1 renal
  GI50: 18.7 µM
  TGI: 45.5 µM
UACC-257 melanoma
  GI50: 5.2 µM
  TGI: 17.7 µM
SR leukemia
  GI50: 5.39 µM
  TGI: 25.3 µM
K-562 leukemia
  GI50: 5.12 µM
  TGI: 32 µM
ACHN renal
  GI50: 6.4 µM
  TGI: 20.8 µM
NCI/ADR-RES ovarian
  GI50: 5.06 µM
  TGI: 24.3 µM
SK-MEL-28 melanoma
  GI50: 4.78 µM
  TGI: 16.6 µM
NCI-H226 lung
  GI50: 18.1 µM
  TGI: 41.9 µM
786-0 renal
  GI50: 18.6 µM
  TGI: 35.4 µM
HOP-62 NSCLC
  GI50: 13.6 µM
  TGI: 30.2 µM
SK-MEL-2 melanoma
  GI50: 5.62 µM
  TGI: 17.7 µM
NCI-H522 lung
  GI50: 2.69 µM
  TGI: 8.46 µM
SF-295 CNS
  GI50: 14.4 µM
  TGI: 33.5 µM
NCI-H460 lung
  GI50: 5.1 µM
  TGI: 20 µM
MDA-MB-435
  GI50: 5.23 µM
  TGI: 19.8 µM
SK-MEL-5 melanoma
  GI50: 3.16 µM
  TGI: 11.6 µM
NCI-H23 lung
  GI50: 3.14 µM
  TGI: 11.8 µM
U251 CNS
  GI50: 4.42 µM
  TGI: 18.4 µM
IGROV1 ovarian
  GI50: 15.7 µM
  TGI: 36.3 µM
T-47D breast
  GI50: 4.36 µM
  TGI: 17.7 µM
COLO 205 colon
  GI50: 17.8 µM
  TGI: 34.9 µM
SNB-19 CNS
  GI50: 4.88 µM
  TGI: 25.2 µM
SN12C renal
  GI50: 3.89 µM
  TGI: 16.8 µM
OVCAR-8 ovarian
  GI50: 5.89 µM
  TGI: 24.7 µM
M14 melanoma
  GI50: 10.7 µM
  TGI: 27.9 µM
MCF7 breast
  GI50: 11.2 µM
  TGI: 30 µM
LOX IMVI melanoma
  GI50: 4.89 µM
  TGI: 17.6 µM
HCT-116 colon
  GI50: 6 µM
  TGI: 24.3 µM
MOLT-4 leukemia
  GI50: 7.37 µM
  TGI: 38.4 µM
HT29 colon
  GI50: 19 µM
  TGI: 34.1 µM
OVCAR-5 ovarian
  GI50: 15.8 µM
  TGI: 32.1 µM
SF-539 CNS
  GI50: 4.66 µM
  TGI: 18.7 µM
RPMI-8226 leukemia
  GI50: 3180 nM
  TGI: 15.6 µM
SF-268 CNS
  GI50: 7.68 µM
  TGI: 26.7 µM
HS 578T breast
  GI50: 4.28 µM
  TGI: 25.8 µM
KM12 colon
  GI50: 17 µM
  TGI: 33.3 µM
MDA-MB-231 breast
  GI50: 6.58 µM
  TGI: 23.2 µM
PC-3 prostate
  GI50: 10.6 µM
  TGI: 29.4 µM
A549 NSCLC
  GI50: 5.09 µM
  TGI: 22 µM
DU-145 prostate
  GI50: 11.7 µM
  TGI: 28.4 µM
BT-549 breast
  GI50: 8.46 µM
  TGI: 23 µM
A498 renal
  GI50: 15.5 µM
  TGI: 31.1 µM
UO-31 renal
  GI50: 5 µM
  TGI: 19.6 µM
SW-620 colon
  GI50: 9.29 µM
  TGI: 25.3 µM
SK-OV-3 ovarian
  GI50: 14.9 µM
  TGI: 29.7 µM

## CN(C)CCNc1nc2ccccc2c2c1c1c(n2Cc2ccccc2)-c2ccccc2C1=O
OVCAR-4 ovarian
  GI50: 12.6 µM
  TGI: 27 µM
OVCAR-3 ovarian
  GI50: 17.2 µM
  TGI: 34.8 µM
SNB-75 CNS
  GI50: 14.4 µM
  TGI: 28.9 µM
HCT-15 colon
  GI50: 10.7 µM
  TGI: 26.1 µM
HL-60(TB) leukemia
  GI50: 15.2 µM
  TGI: 34.1 µM
RXF 393 renal
  GI50: 11.5 µM
  TGI: 37.6 µM
CCRF-CEM leukemia
  GI50: 7.86 µM
  TGI: 24.1 µM
CAKI-1 renal
  GI50: 18 µM
  TGI: 37.1 µM
UACC-257 melanoma
  GI50: 19.9 µM
  TGI: 42.6 µM
SR leukemia
  GI50: 2.85 µM
  TGI: 20.9 µM
K-562 leukemia
  GI50: 3.89 µM
  TGI: 21.2 µM
ACHN renal
  GI50: 6.43 µM
  TGI: 20.7 µM
NCI/ADR-RES ovarian
  GI50: 5.77 µM
  TGI: 23.1 µM
EKVX NSCLC
  GI50: 16.3 µM
  TGI: 32.3 µM
SK-MEL-28 melanoma
  GI50: 16.8 µM
  TGI: 32.3 µM
NCI-H226 lung
  GI50: 20.2 µM
  TGI: 50.3 µM
786-0 renal
  GI50: 19.2 µM
  TGI: 38.3 µM
HOP-62 NSCLC
  GI50: 18.1 µM
  TGI: 37.2 µM
SK-MEL-2 melanoma
  GI50: 10.9 µM
  TGI: 28.9 µM
NCI-H522 lung
  GI50: 11 µM
  TGI: 35.3 µM
SF-295 CNS
  GI50: 9.33 µM
  TGI: 24.9 µM
NCI-H460 lung
  GI50: 10.5 µM
  TGI: 26.7 µM
MDA-MB-435
  GI50: 16.8 µM
  TGI: 35.5 µM
SK-MEL-5 melanoma
  GI50: 15.8 µM
  TGI: 30.9 µM
NCI-H23 lung
  GI50: 14.8 µM
  TGI: 39.7 µM
U251 CNS
  GI50: 14.4 µM
  TGI: 29.2 µM
IGROV1 ovarian
  GI50: 12.1 µM
  TGI: 49.5 µM
T-47D breast
  GI50: 19.4 µM
  TGI: 50.6 µM
COLO 205 colon
  GI50: 16.6 µM
  TGI: 65.3 µM
SNB-19 CNS
  GI50: 16.4 µM
  TGI: 33.8 µM
SN12C renal
  GI50: 12.6 µM
  TGI: 27.5 µM
OVCAR-8 ovarian
  GI50: 6.14 µM
  TGI: 52.2 µM
M14 melanoma
  GI50: 18.6 µM
  TGI: 40.7 µM
MCF7 breast
  GI50: 15.1 µM
  TGI: 33.6 µM
LOX IMVI melanoma
  GI50: 11.8 µM
  TGI: 26.1 µM
UACC-62 melanoma
  GI50: 18.3 µM
  TGI: 34.3 µM
HCT-116 colon
  GI50: 4.67 µM
  TGI: 25.2 µM
MOLT-4 leukemia
  GI50: 4.77 µM
  TGI: 18.5 µM
HT29 colon
  GI50: 6.92 µM
  TGI: 22.2 µM
OVCAR-5 ovarian
  GI50: 12.3 µM
  TGI: 27.8 µM
SF-539 CNS
  GI50: 14 µM
  TGI: 29.4 µM
RPMI-8226 leukemia
  GI50: 2780 nM
  TGI: 17.7 µM
SF-268 CNS
  GI50: 12.2 µM
  TGI: 28.6 µM
HS 578T breast
  GI50: 11.3 µM
  TGI: 31.5 µM
HOP-92 NSCLC
  GI50: 6.19 µM
  TGI: 21.2 µM
MDA-MB-231 breast
  GI50: 16.5 µM
  TGI: 32.1 µM
A549 NSCLC
  GI50: 14.6 µM
  TGI: 46.6 µM
DU-145 prostate
  GI50: 15 µM
  TGI: 30.6 µM
BT-549 breast
  GI50: 16.7 µM
  TGI: 32.9 µM
A498 renal
  GI50: 14.1 µM
  TGI: 28.9 µM
UO-31 renal
  GI50: 14.3 µM
  TGI: 35.4 µM
SW-620 colon
  GI50: 7.96 µM
  TGI: 24 µM
SK-OV-3 ovarian
  GI50: 20.3 µM
  TGI: 45.1 µM
